Key:
RORα LBD [1] = target: T1, RORα LBD (Homo sapiens (Human), UniProt P35398); experiment: TR-FRET co-repressor NCoR1-D2 interaction with RORα LBD; assay type: biochemical
Text: (§1) The Time-Resolved Fluorescence Resonance Energy Transfer (TR-FRET) assay kit (Life Technologies) was used to measure compound efficacy to disrupt or enhance ligand-mediated interaction of the co-activator and co-repressor peptides with the purified GST-tagged (i) RORγ LBD or (ii) […]. The RORγ LBD and RORα LBD each have a basal level of interaction with the co-activator D22 or co-repressor NCoR1-D2 in the absence of ligand, thus it is possible to identify compounds that inhibit or induce RORγ and/or RORα co-activator/co-repressor interactions, thus determining RORα, RORγ, or RORα/RORγ compound selectivity. The assay was performed as per manufacturer's instructions and TR-FRET was assessed 2 and 20 hours post-assay initiation. Compounds were identified to (i) have no impact on either co-activator displacement or […] from the assessed LBD (ii) promote co-activator displacement from the assessed LBD (iii) promote co-repressor recruitment to the assessed LBD or (iv) concurrently promote co-activator displacement from the assessed LBD and co-repressor recruitment to the assessed LBD.

RORα LBD [2] = target: T1, RORα LBD; experiment: TR-FRET co-activator D22 interaction with RORα LBD; assay type: biochemical
Text: as §1

IL-17F [3] = experiment: Real-time qRT-PCR in TH17 cells: IL-17F gene expression; assay type: cell-based, human; parameters: key: A: No change in gene expression observed relative to DMSO treated Th17 cells; B: Decreased gene expression observed relative to DMSO treated Th17 cells; C: Increased gene expression observed relative to DMSO treated Th17 cells
Method: (§2) Peripheral blood mononuclear cells (PBMCs) were sourced from freshly prepared leukocyte enriched plasma (buffy coat) from healthy volunteers from which PBMCs were isolated by density gradient centrifugation using Ficoll-Paque™ PLUS (GE Healthcare). Naïve CD4+ T cells were isolated using the Naïve CD4+ T cell Isolation Kit II (Miltenyi Biotec) as per manufacturer's instructions. CD4+ T cells were plated at 5×10^4 cells/well in 96 well plates pre-coated with immobilized human (h)-αCD3 antibody (eBioscience) then differentiated to TH17 cells using h-αCD28, h-αIFNγ, h-αIL4, h-IL6, h-IL23, h-IL1β, h-TGFβ1 (eBioscience) and maintained in a cell culture incubator at 37° C. with 5% CO2 in TexMACS Medium (Miltenyi Biotec) supplemented with 1% Penicillin/Streptomycin (Lonza) over 5 days.
(§3) RNA was isolated from TH17 cells and cDNA was synthesized using the Verso cDNA kit (Thermo Scientific) as per manufacturer's instructions. IL-17A, IL-17F, IL-21, IL-22, G-CSF, IL-23R and FOXP3 gene expression were determined for compound treated and untreated TH17 cell samples using Solaris qPCR Gene expression assays (Thermo Scientific) with an iCycler iQ Real-Time PCR Detection System (Bio-Rad). Individual gene expression was normalized to a panel of six reference genes (ACTB, TBP, HPRT1, PGK1, TFRC and PPIA) (Thermo Scientific) and analyzed by REST 2009 (Qiagen) in accordance to MIQE guidelines (Bustin et al. (2009) Clin. Chem, 55:611-622). The effects of compounds on TH17 cytokine mRNA levels are presented as fold change in gene expression of compound treated TH17 cells relative to DMSO treated cells in the table below.

RORγ LBD [4] = target: T2, RORγ LBD (Homo sapiens (Human), UniProt P51449); experiment: TR-FRET co-activator D22 interaction with RORγ LBD; assay type: biochemical
Text: as §1

IL-17F [5] = experiment: TH17 cytokine inhibition as measured by ELISA: IL-17F; assay type: cell-based; details: 120 h; human TH17 cells, 5 days differentiation, ELISA of supernatant
Method: as §2
(§4) Human CD4+ T cells were differentiated to TH17 cells as described in the presence or absence of various concentrations of compounds in a final concentration of 0.1% DMSO in TexMACS medium. Supernatants were collected and stored at −20° C. until they were to be assayed for IL-17A, IL-17F, IL-17AF, IL-21 and/or IL-22 levels as determined by Ready-Set-Go ELISA kits (eBioscience) as per manufacturer's instructions. Endpoint absorbance was read at 450 nm and 570 nm according to manufacturer's instructions (eBioscience) using a microplate reader (Perkin Elmer). The percentage of cytokine inhibition was calculated with reference to DMSO treated cells and the IC50s were determined by GraphPad Prism software and presented in the table below.

IL-22 [6] = experiment: TH17 cytokine inhibition as measured by ELISA: IL-22; assay type: cell-based; details: 120 h; human TH17 cells, 5 days differentiation, ELISA of supernatant
Method: as §2, §4

RORγ LBD [7] = target: T2, RORγ LBD; experiment: TR-FRET co-repressor NCoR1-D2 interaction with RORγ LBD; assay type: biochemical
Text: as §1

TH17 cells = experiment: TH17 cellular proliferation (Prestoblue); assay type: cell-based; details: Homo sapiens, 120 h; 3 μM compound, after 5 day TH17 differentiation, relative to DMSO treated TH17 cells; read-out: % change in TH17 cell number
Method: as §2
Cellular proliferation was assessed in the presence or absence of 3 μM compound using Prestoblue® Cell Viability Reagent (Life Technologies) as per manufacturer's instructions using absorbance as the output measured by a microplate reader (Perkin Elmer) after 30 minutes of incubation of cells and reagent. A standard curve developed by plotting varying cell numbers versus absorbance was used to assess differences in cellular proliferation between compound treated or untreated cells after the 5 day TH17 differentiation period.

[8] = TH17 cell viability (Prestoblue); assay type: cell-based; parameters: concentration or dose not given beside the values; details: human; percentage of DMSO treated cells; read-out: % viability of compound treated TH17 cells
Method: as §2
Cells were assayed for viability in the presence or absence of compound using Prestoblue® Cell Viability Reagent (Life Technologies) as per manufacturer's instructions after 30 minutes incubation of TH17 cells with reagent. Absorbance was measured at 570 nm and 600 nm using a microplate reader (Perkin Elmer) and data were analyzed as per manufacturer's instructions. Cell viability was expressed as a percentage of DMSO treated cells.

IL-23R = experiment: Real-time qRT-PCR in TH17 cells: IL-23R gene expression; assay type: cell-based, human; parameters: key: A: No change in gene expression observed relative to DMSO treated Th17 cells; B: Decreased gene expression observed relative to DMSO treated Th17 cells; C: Increased gene expression observed relative to DMSO treated Th17 cells
Method: as §2, §3

IL-17A [9] = experiment: Real-time qRT-PCR in TH17 cells: IL-17A gene expression; assay type: cell-based, human; parameters: key: A: No change in gene expression observed relative to DMSO treated Th17 cells; B: Decreased gene expression observed relative to DMSO treated Th17 cells; C: Increased gene expression observed relative to DMSO treated Th17 cells
Method: as §2, §3

IL-22 [10] = experiment: Real-time qRT-PCR in TH17 cells: IL-22 gene expression; assay type: cell-based, human; parameters: key: A: No change in gene expression observed relative to DMSO treated Th17 cells; B: Decreased gene expression observed relative to DMSO treated Th17 cells; C: Increased gene expression observed relative to DMSO treated Th17 cells
Method: as §2, §3

IL-17A [11] = experiment: TH17 cytokine inhibition as measured by ELISA: IL-17A; assay type: cell-based; details: 120 h; human TH17 cells, 5 days differentiation, ELISA of supernatant
Method: as §2, §4

FOXP3 = experiment: Real-time qRT-PCR in TH17 cells: FOXP3 gene expression; assay type: cell-based, human; parameters: key: A: No change in gene expression observed relative to DMSO treated Th17 cells; B: Decreased gene expression observed relative to DMSO treated Th17 cells; C: Increased gene expression observed relative to DMSO treated Th17 cells
Method: as §2, §3

IL-21 = experiment: Real-time qRT-PCR in TH17 cells: IL-21 gene expression; assay type: cell-based, human; parameters: key: A: No change in gene expression observed relative to DMSO treated Th17 cells; B: Decreased gene expression observed relative to DMSO treated Th17 cells; C: Increased gene expression observed relative to DMSO treated Th17 cells
Method: as §2, §3

[12] = 2 hr, read-out: RORα EC50 NCoR1-D2 co-repressor recruitment 2 hr
[13] = 20 hr, read-out: RORα EC50 NCoR1-D2 co-repressor recruitment 20 hr
[14] = 2 hr, read-out: RORα EC50 D22 co-activator displacement 2 hr
[15] = 20 hr, read-out: RORα EC50 D22 co-activator displacement 20 hr
[16] = 2 hr, read-out: RORγ EC50 D22 co-activator displacement 2 hr
[17] = 20 hr, read-out: RORγ EC50 D22 co-activator displacement 20 hr
[18] = 2 hr, read-out: RORγ EC50 NCoR1-D2 co-repressor recruitment 2 hr
[19] = 20 hr, read-out: RORγ EC50 NCoR1-D2 co-repressor recruitment 20 hr

T2 sequence (P51449 269-508): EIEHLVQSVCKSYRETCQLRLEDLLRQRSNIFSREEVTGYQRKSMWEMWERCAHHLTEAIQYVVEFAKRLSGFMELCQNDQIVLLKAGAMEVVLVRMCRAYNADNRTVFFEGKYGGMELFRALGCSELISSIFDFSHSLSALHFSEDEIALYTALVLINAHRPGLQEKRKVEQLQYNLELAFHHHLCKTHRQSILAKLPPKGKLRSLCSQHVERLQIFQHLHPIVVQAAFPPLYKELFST
T1 sequence (P35398 272-510): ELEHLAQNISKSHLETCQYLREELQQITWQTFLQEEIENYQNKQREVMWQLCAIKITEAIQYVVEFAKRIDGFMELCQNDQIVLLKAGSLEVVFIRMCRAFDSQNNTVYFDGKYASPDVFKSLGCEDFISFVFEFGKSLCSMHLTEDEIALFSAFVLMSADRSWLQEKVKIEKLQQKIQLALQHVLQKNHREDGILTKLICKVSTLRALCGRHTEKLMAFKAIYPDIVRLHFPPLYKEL

Row | SMILES | EC50 (RORα LBD [1]; [12]) [µM] | EC50 (RORα LBD [1]; [13]) [µM] | EC50 (RORα LBD [2]; [14]) [µM] | EC50 (RORα LBD [2]; [15]) [µM] | EC50 (RORγ LBD [4]; [16]) [µM] | EC50 (RORγ LBD [4]; [17]) [µM] | IC50 (IL-17F [5]) [µM] | IC50 (IL-22 [6]) [µM] | EC50 (RORγ LBD [7]; [18]) [µM] | EC50 (RORγ LBD [7]; [19]) [µM] | inhibition at 3 µM (TH17 cells) [%] | viability [8] [%] | IC50 (IL-17A [11]) [µM] | other results
1 | CS(=O)(=O)Nc1ccc2c(c1)CCC(=O)N2Cc1ccc(C(O)(C(F)(F)F)C(F)(F)F)cc1 [Example 6, N-(1-(4-(1,1,1,3,3,3-hexafluoro-2-hydroxypropan-2-yl)benzyl)-2-oxo-1,2,3,4-tetrahydroquinolin-6-yl)methanesulfonamide] | > 30 | > 30 | < 30 | < 30 | > 30 | > 30 | < 10 | < 10 | < 30 | > 30 | ≤ 50 | > 80 | < 10 | Fold change in mRNA level of compound treated TH17 cells relative to DMSO treated cells IL-17F (IL-17F [3]): B; Fold change in mRNA level of compound treated TH17 cells relative to DMSO treated cells IL-23R (IL-23R): A; Fold change in mRNA level of compound treated TH17 cells relative to DMSO treated cells IL-17A (IL-17A [9]): A; Fold change in mRNA level of compound treated TH17 cells relative to DMSO treated cells IL-22 (IL-22 [10]): A; Fold change in mRNA level of compound treated TH17 cells relative to DMSO treated cells FOXP3 (FOXP3): A; Fold change in mRNA level of compound treated TH17 cells relative to DMSO treated cells IL-21 (IL-21): A
2 | CNC(=O)c1ccc(CN2CCc3cc(NC(C)=O)ccc32)cc1 [Example 12, 4-((5-acetamidoindolin-1-yl)methyl)-N-methylbenzamide] | > 30 |  |  |  |  |  | > 10 | > 10 | > 30 | > 30 | ≤ 50 | > 80 | > 10 | EC50 (RORα LBD [1]; 20 hr, co-repressor displacement (Ω), read-out: RORα EC50 NCoR1-D2 20 hr (demonstrates co-repressor displacement)): < 30 µM; EC50 (RORα LBD [2]; 2 hr, co-activator recruitment (π), read-out: RORα EC50 D22 2 hr (demonstrates co-activator recruitment)): < 30 µM; EC50 (RORα LBD [2]; 20 hr, co-activator recruitment (π), read-out: RORα EC50 D22 20 hr (demonstrates co-activator recruitment)): < 30 µM; EC50 (RORγ LBD [4]; 2 hr, co-activator recruitment (π), read-out: RORγ EC50 D22 2 hr (demonstrates co-activator recruitment)): < 30 µM; EC50 (RORγ LBD [4]; 20 hr, co-activator recruitment (π), read-out: RORγ EC50 D22 20 hr (demonstrates co-activator recruitment)): < 30 µM
3 | CC(=O)Nc1ccc2c(c1)CCN2Cc1ccc(C(=O)N(C)C)cc1 [Example 13, 4-((5-acetamidoindolin-1-yl)methyl)-N,N-dimethylbenzamide] | > 30 | > 30 | > 30 | > 30 | > 30 | > 30 | > 10 | > 10 | > 30 | > 30 | ≤ 50 | > 80 | > 10 | 
4 | CC(=O)Nc1ccc2c(c1)CCN2Cc1ccc(C(=O)Nc2ccccc2)cc1 [Example 15, 4-((5-acetamidoindolin-1-yl)methyl)-N-phenylbenzamide] | > 30 | > 30 | > 30 | > 30 | < 30 | < 30 | < 10 | < 10 | > 30 | > 30 | ≤ 50 | > 80 | < 10 | 
5 | CC(=O)Nc1ccc2c(ccn2Cc2ccc(C(O)(C(F)(F)F)C(F)(F)F)cc2)c1 [Example 16, N-(1-(4-(1,1,1,3,3,3-hexafluoro-2-hydroxypropan-2-yl)benzyl)-1H-indol-5-yl)acetamide] | > 30 | < 30 | < 30 | > 30 | < 30 | < 30 | < 10 | < 10 | > 30 | > 30 | ≤ 50 | > 80 | < 10 | 

From patent US9321750B2, “ROR modulators and their uses” (INNOV17 LLC, priority 2012, dated 2016)
